Source: patent US20180116975A1, “COMPOSITIONS AND COMBINATIONS FOR THE TREATMENT OF ANGIOGENESIS DISEASES AND DISORDERS” (BIOMAS LTD., priority 2015, published 2018)

System: patients with AMD (PED, subretinal fluid)
Assay: Clinical study (compassionate treatment): oral AS101 in conjunction with intra vitreal anti VEGF injections
Format: in vivo, human
Source text: Patients were orally administered with AS101/Formula I in conjunction with intraocular injections of intra vitreal anti VEGF. […] A special compassionate approval has been given by the local committee of ethics in Meir medical center, Kfar Saba, and the Ministry of Health in Israel to treat these two patients with orally taken AS101.
Patient underwent an additional intra-vitreal Lucentis injection and from this point examination continued every month with treatment in PRN mode. Until Jul. 26, 2012 the patient underwent 9 intra-vitreal Lucentis injections. On January 2013 treatment was switched to Aflibercept (Eylea) and the patient received 3 montly injection and an additional injection on Jun. 18, 2013.
The patient received an intravitreal triancinolon acetonid injection followed by the 3rd lucentis one week later. […] The patient received 2 additional Lucentis injections and on Nov. 27, 2012 treatment was switched to Eylea when it became available in Israel. The patient received 8 monthly Eylea injections, the last one on Jun. 18, 2013.
On Jul. 7, 2013, the patient started to receive 12 drops of AS101 every day orally. On Aug.
Except for one occasion of a 5 month interval between 2 injections, the patient received an injection every month. […] Four days after the last Lucentis injection, on 13 Aug. 2013 the patient started to take 12 drops of AS101 orally.

Cl[TeH]1(Cl)(Cl)OCCO1 [AS101]
OCT finding after discontinuation of AS101 (Case 1, 3 weeks after AS101 was discontinued): development of new subretinal fluid in both eyes | time without need for additional injections (Case 1, left eye, until discontinuation of AS101): 8 months | subretinal fluid at the base of the PED (OCT) (Case 1, left eye, 12 drops AS101 daily orally, one month after Lucentis with triamcinilon acetonide injections): decrease of the amount of the subretinal fluid | subretinal fluid at the slope of the PED (OCT) (Case 1, left eye, next 3 monthly OCT tests after cataract surgery, on AS101): absorbed for the first time since it appeared | time without need for intravitreal injections (Case 1, right eye, until discontinuation of AS101): 10 months | adverse events (Case 2, 12 drops AS101 orally): No adverse events were reported | last visual acuity (Case 2, left eye, Nov. 11, 2014, on AS101 (20/200 at diagnosis)): 20/50 | last visual acuity (Case 2, right eye, Nov. 11, 2014, on AS101): 20/30 | Angiogenesis inhibitor injections during treatment according to the invention (Patient #1, LE (left eye), in 9 months, oral AS101): LE: 1 injection in 9 | maximal time interval between injections (Patient #2, during AS 101 treatment with Lucentis): injections: 14 months | Angiogenesis inhibitor injections during treatment according to the invention (Patient #2, in 27 months, 12 drops AS101 orally, Lucentis PRN): 4 injections | Angiogenesis inhibitor injections during treatment according to the invention (Patient #2, in 27 months, 12 drops AS101 orally, Lucentis PRN, listed as AS 101): 4 injections in 27 | progression of drusens/dry AMD to Wet AMD (observation during the compassionate treatment): did not developed to Wet AMD | time intervals between Ranibizumab injections (patient suffering from AMD, otherwise injected every month, with AS-101): 9 months

Aflibercept [Eylea, reference compound]
amount of the subretinal fluid over the peak of the PED and at the slope (Case 1, left eye, 8 monthly injections, before AS101): did not change

B1: Ranibizumab (antibody, chains of the INN, looked up, V domains shown)
VH: EVQLVESGGGLVQPGGSLRLSCAASGYDFTHYGMNWVRQAPGKGLEWVGWINTYTGEPTYAADFKRRFTFSLDTSKSTAYLQMNSLRAEDTAVYYCAKYPYYYGTSHWYFDVWGQGTLVTVSS
VL: DIQLTQSPSSLSASVGDRVTITCSASQDISNYLNWYQQKPGKAPKVLIYFTSSLHSGVPSRFSGSGSGTDFTLTISSLQPEDFATYYCQQYSTVPWTFGQGTKVEIK
subretinal fluid (OCT) (Case 1, right eye, 3 intra-vitreal injections in one month intervals, before AS101): resolution of the subretinal fluid
